Source: patent US20250161306A1, “UBIQUITIN-SPECIFIC-PROCESSING PROTEASE 1 (USP1) INHIBITORS FOR THE TREATMENT OF SOLID TUMORS” (KSQ Therapeutics, Inc., priority 2022, published 2025)

What was measured:
[1] = Mouse pharmacokinetic study, single oral dose, plasma by LC-MS/MS; type: in vivo, female NOD/SCID mice; settings: for AUClast / Cmax / T1/2 / Tmax: 300 mg/kg single oral dose, plasma, 300 mg/kg
Experimental: Mouse pharmacokinetic (PK) studies were conducted using Crystalline Form A of 6-(4-cyclopropyl-6-methoxypyrimidin-5-yl)-1-(4-(1-isopropyl-4-(trifluoromethyl)-1H-imidazol-2-yl)benzyl)-1H-pyrazolo[3,4-d]pyrimidine, as disclosed herein and Crystalline Form 2 of a gentisic acid co-crystal of 6-(4-cyclopropyl-6-methoxypyrimidin-5-yl)-1-(4-(1-isopropyl-4-(trifluoromethyl)-1H-imidazol-2-yl)benzyl)-1H-pyrazolo[3,4-d]pyrimidine, as disclosed herein.
The PK studies consisted of single dose oral exposure studies, which were conducted in female NOD/SCID mice (approximately 6 to 8 weeks, and 20-30 g at the time of study) using a compound dose of 300 mg/kg and a dosing volume of 10 mL/kg. The mice were fasted overnight prior to dosing. Animals had free access to food and water post-dosing.
Blood was sampled serially from the dorsal metatarsal vein at pre-dose, 0.25, 0.5, 1, 2, 4, 8, 24, 48 (crystalline Form 2 only), and 72 hours (crystalline Form 2 only) post PO dosing. Approximately 0.03 mL blood was collected at each time point and centrifuged at 4000 G for 5 minutes at 4° C. to provide plasma. The plasma samples were then stored in a freezer at −75±15° C. prior to LC-MS/MS analysis.
Concentrations of each compound in the plasma samples were then analyzed using an LC-MS/MS method. WinNonlin (Phoenix™, version 6.1) or other similar software was used for PK calculations. The following PK parameters were calculated, whenever possible from the plasma concentration versus time data: Cmax, Tmax, T1/2, AUCinf, and AUClast. The PK data were described using descriptive statistics such as mean with standard deviation.

[2] = Distribution in rat brain and plasma after single oral dose; type: in vivo, Sprague Dawley rats; settings: 100 mg/kg single oral dose; for AUC0-∞: brain
Experimental: Male and female Sprague Dawley rats were purchased from Beijing Anikeeper Biotech Co, Ltd. Animals were habituated to the environment prior to study initiation. Rats were dosed with single dose of 100 mg/kg crystalline Form 2 via oral gavage. The rats were fasted overnight prior to dosing. Animals had access to food from 2 hours post dose and free access to water throughout the study. Approximately 0.2 mL of blood was sampled via jugular vein at each time point and centrifuged at 4000G for 5 minutes at 4° C. to provide plasma. Samples were then stored in a freezer at −75±15° C. prior to LC-MS/MS analysis. Whole brain was collected after hemoperfusion and snap frozen on dry ice prior to storage at −75±15° C. Prior to LC-MS/MS analysis whole brains were weighed and homogenized with water by tissue weight (g) to water volume (ml) ratio 1:3 before analysis. Actual concentration is the measured value multiplied by the dilution factor. The PK data were described using descriptive statistics such as mean with standard deviation.

[3] = Distribution in mouse brain and plasma after repeated oral dosing; type: in vivo, female NOD SCID mice; settings: 100 or 300 mg/kg oral for 28 days
Experimental: Female NOD SCID mice of an age between 6-8 weeks and a body weight range of 18-22 g were purchased from Beijing Anikeeper Biotech Co, Ltd. Animals were habituated to the environment for at least 7 days prior to study initiation. Mice were dosed with Crystalline Form 2 at either 100 mg/kg or 300 mg/kg dose levels via oral gavage for 28 days. After 24 hours following 27 doses of compound, three mice were euthanized via CO2. After four hours following 28 doses of compound, three mice were euthanized via CO2. At each time point the whole brain was collected. In addition, approximately 0.03 mL of blood was collected at each time point and centrifuged at 4000G for 5 minutes at 4° C. to provide plasma. Samples were then stored in a freezer at −75±15° C. prior to LC-MS/MS analysis. Concentrations of compound in brain homogenates (ng/g) and plasma (ng/ml) were then analyzed using an LC-MS/MS method. The PK data were described using descriptive statistics such as mean with standard deviation.

SMILES | AUClast ([1]; Mean) [µg·h/mL] | Cmax ([1]; Mean) [ng/mL] | T1/2 ([1]; Mean) [h] | Tmax ([1]; Mean) [h] | AUClast ([1]; Mouse 7) [µg·h/mL] | Cmax ([1]; Mouse 7) [ng/mL] | AUClast ([1]; Mouse 8) [µg·h/mL] | Cmax ([1]; Mouse 8) [ng/mL] | T1/2 ([1]; Mouse 8) [h] | Tmax ([1]; Mouse 8) [h] | AUClast ([1]; Mouse 9) [µg·h/mL] | Cmax ([1]; Mouse 9) [ng/mL] | T1/2 ([1]; Mouse 9) [h] | Tmax ([1]; Mouse 9) [h] | mouse oral exposure levels compared to crystalline Form A (freebase) ([1]; about 300 mg/kg) | drug level in the brain tissue ([2]; male and female rats) | AUC0-∞ ([2]; Female rats) [ng·h/g] | AUC0-∞ ([2]; Male rats) [ng·h/g] | accumulation of the drug in the brain after repeated dosing [3] | drug level in the brain tissue [3]
COc1ncnc(C2CC2)c1-c1ncc2cnn(Cc3ccc(-c4nc(C(F)(F)F)cn4C(C)C)cc3)c2n1 [Crystalline Form 2, 6-(4-cyclopropyl-6-methoxypyrimidin-5-yl)-1-(4-(1-isopropyl-4-(trifluoromethyl)-1H-imidazol-2-yl)benzyl)-1H-pyrazolo[3,4-d]pyrimidine] | 752.45 | 28900 | 4.17 | 10.7 | 827.348 | 28800 | 835.713 | 28900 | 4.22 | 12.0 | 594.288 | 29000 | 4.27 | 12.0 | higher exposure levels | measurable drug level | 120933 | 60596 | no apparent accumulation | measurable drug level
COc1ncnc(C2CC2)c1-c1ncc2cnn(Cc3ccc(-c4nc(C(F)(F)F)cn4C(C)C)cc3)c2n1 [Crystalline Form A, 6-(4-cyclopropyl-6-methoxypyrimidin-5-yl)-1-(4-(1-isopropyl-4-(trifluoromethyl)-1H-imidazol-2-yl)benzyl)-1H-pyrazolo[3,4-d]pyrimidine] | 60.663 | 3697 | 12.7 | 5.33 | 72.653 | 4450 | 40.678 | 2890 | – | 4.00 | 68.658 | 3750 | 18.6 | 4.00 | – | – | – | – | – | –
